Laboratory results from PubChem BioAssay AID1626 (SRMLSC, 2009).

System: M. tuberculosis H37Rv growth inhibition
Assay: M. tuberculosis H37Rv growth inhibitors, H37Rv strain (AID 1626)
Conditions: for IC90: measured here: IC90 against H37Rv; for CC50: measured here: Vero cell cytotoxicity

| Structure (SMILES) | IC50 | IC90 | CC50 |
| --- | --- | --- | --- |
| CC1CC(C)(C)Nc2ccc(N=O)cc21 (centres undefined) | 5.75 µM | 6.38 µM | 6.76 µM |
| CCc1ccc(Nc2c([N+](=O)[O-])c(=O)oc3ccccc23)cc1 | – | > 100 µM | > 40 µM |
| COc1ccccc1N1CCN(Cc2nc(N)nc(Nc3ccc(C)c(Cl)c3)n2)CC1 | 8.35 µM | 18.7 µM | > 40 µM |
| O=C(Nc1ccc2oc(-c3cccnc3)nc2c1)c1ccc([N+](=O)[O-])o1 | < 0.195 µM | > 100 µM | 1.32 µM |
| COc1ccc(-c2nc(CN3CCCCC3c3nccn3C)c(C)o2)c(C)c1C (centres undefined) | 18.1 µM | 40.9 µM | 22 µM |
| COc1cc(CNCc2ccccn2)ccc1OCc1ccc(Cl)cc1Cl | 6.04 µM | 9.96 µM | > 40 µM |
| Cc1ccc2c(Cl)cc(Cl)c(OCC(=O)NC(C)(C)C)c2n1 | 11.6 µM | > 100 µM | > 40 µM |
| Cc1sc2cc3c(c(C(=O)c4ccccc4)[n+]2c1C)-c1cccc2cccc-3c12 | 1.52 µM | 2.33 µM | > 40 µM |
| O=C(CSc1ncnc2sc3c(c12)CCCC3)N1CCC(c2noc3ccc(F)cc23)CC1 | 2.94 µM | 4.24 µM | > 40 µM |
| Cc1ccc(-n2cc(CN(C)Cc3ncc[nH]3)c(-c3cccc(C)c3)n2)cc1 | 10.3 µM | 13.5 µM | > 40 µM |
| Cc1cc(C)n(-c2nc(NC(C)(C)C)nc(NC(C)(C)C)n2)n1 | < 0.195 µM | 21 µM | > 40 µM |
| Cc1nn2c(NCCCn3ccnc3)cc(C(C)C)nc2c1-c1ccccc1 | 7.66 µM | 11.9 µM | 26.4 µM |
| CCN(CCCCN1C(=O)c2ccccc2C1=O)c1ccc2c(c1)C(=O)N(C)C2=O | 12 µM | > 100 µM | – |
| CCc1nnc(NC(=O)c2cccc(C(=O)Nc3nnc(CC)s3)n2)s1 | – | 1.09 µM | 3.62 µM |
| Cn1cnc([N+](=O)[O-])c1S(=O)(=O)c1cccc(Cl)c1 | 10.9 µM | 11.8 µM | 18.7 µM |
| Cc1nc(SCc2cccc(F)c2)c2oc3ccccc3c2n1 | 0.588 µM | 18 µM | – |
| O=C(c1ccc(Cl)cc1)C1CCCN(Cc2cnn(-c3ccccc3)c2)C1 (centres undefined) | 8.69 µM | 11.5 µM | – |
| CCOC(=O)C(Nc1ccc2ccccc2c1)C(=O)OCC | 1.04 µM | 2.86 µM | > 40 µM |
| CCC(=O)Nc1nc2ccccc2n1Cc1ccccc1C | 1.47 µM | > 100 µM | > 40 µM |

| Structure (SMILES) | IC50 | IC90 | CC50 |
| --- | --- | --- | --- |
| CCCCOc1ccc(NC(=O)c2cnc(C)cn2)cc1 | 22.1 µM | > 100 µM | > 40 µM |
| Nc1nc(-c2ccccn2)nc(N)c1Cc1c(F)cccc1Cl | < 0.391 µM | 0.451 µM | 4.76 µM |
| OC(CNCCC1C=Nc2ccccc21)Cn1c2ccc(Cl)cc2c2cc(Cl)ccc21 (centres undefined) | 1.82 µM | 2.03 µM | 5.96 µM |
| Cc1ccccc1-n1nnc2c(=O)oc3ccccc3c21 | 4.48 µM | > 100 µM | – |
| O=C(/C=C/Sc1ccccc1)c1ccc(Cl)cc1 | 6.43 µM | 11.2 µM | 26.1 µM |
| Cc1ccc([N+](=O)[O-])cc1NC(=O)CN(C(=O)c1ccccc1Cl)C1CCCCC1 | 3.22 µM | 5.22 µM | – |
| CCN1CCN(c2cc(C(C)(C)C)nc3c(-c4ccccc4)c(C)nn23)CC1 | 3.6 µM | 5.63 µM | 30.6 µM |
| N#C/C(=C/c1ccc(N2CCCCC2)o1)C(=O)NCCc1c[nH]c2ccccc12 | 41 µM | > 100 µM | > 40 µM |
| CCOC(=O)c1ccc(NC(=O)CN2C(=O)C(=O)N(CC(C)C)C2=O)cc1 | < 0.195 µM | > 100 µM | – |
| CCCc1nn(C)c(C(=O)Nc2ccc(CC)cc2)c1Cl | – | > 100 µM | – |
| Nc1nc(F)nc2c1ncn2[C@@H]1O[C@H](CO)[C@@H](O)[C@H]1O | 2.65 µM | 3.95 µM | 0.218 µM |
| O=C(NCc1cn(-c2ccccc2)nc1-c1ccccc1)c1cc([N+](=O)[O-])cc([N+](=O)[O-])c1 | 0.591 µM | 0.847 µM | > 40 µM |
| COc1ccc(C)cc1N=Nc1ccc(O)c2ncccc12 | 31.8 µM | > 100 µM | 2.01 µM |
| COc1ccc(-c2c(C#N)c(SCC(=O)c3cc4ccccc4oc3=O)nc(C)c2C(=O)Nc2ccccc2)cc1 | 12.2 µM | 14.2 µM | 3.41 µM |
| COc1ccc(N=Cc2ccc[nH]2)cc1 | – | > 100 µM | – |
| COc1ccc(NC(=O)N2CCN(c3nc(-c4cccc(OC)c4)cs3)CC2)cc1 | 9.47 µM | > 100 µM | > 40 µM |
| COc1ccc(NC(=O)CSc2ncn(-c3ccccc3)n2)cc1Cl | – | > 100 µM | – |
| CCOc1c2c(nc3ccc(Cl)cc13)CCC2 | 5.14 µM | 21.4 µM | > 40 µM |
| CCOc1ccc2nc(NC(=O)CSc3nnnn3C3CCCCC3)sc2c1 | 56.4 µM | > 100 µM | – |
